Measurements published in patent publication US6673749B1, “Use of phyllocladane diterpenoids for plant growth promotion and alleviation of growth retardant allelochemicals, and method therefor” (Council of Scientific and Industrial Research, priority 2002, dated 2004).

Assays:
Test in all cases: Seed germination and seedling shoot/root growth test in petridishes
Format in all cases: in vivo
[1] = test system: Hordeum vulgare; details: control = 100%
Experimental: (§1) As noted above the activity of phyllocladane diterpenoids used in the practice of this invention was observed when these compounds were tested for their effects on seed germination, root and shoot growth of certain plant species and their antagonistic effect on plant growth retardants by the method described by Bagchi G. D. et al Phytochemistry, 45(6)1131-1133, 1997.
(§2) Plant growth promoting activity of calliterpenone, calliterpenone monoacetate, and calliterpenone di-acetate was examined at 0.1, 0.01 and 0.001 μM concentrations. The tests were conducted against seeds of two monocotyledonous (Hordeum vulgare and Triticum aestivum) and two dicotyledonous plants (Vigna radiata and Trigonella foenum-graecum). Control seeds were germinated in distilled water and all the observations were compared with […]. The root and shoot growth of all the plant species were affected by the phyllocladane diterpenoids, although the extent of effect varied considerably in the plant species with the chemicals and their concentrations. […] Details of the procedure adopted and results obtained are discussed in the various examples.
(§3) 100 ml stalk solutions of 0.1 μM concentration were prepared by dissolving required amounts of various test compounds (depending upon their molecular weights) in minimum amount of ethanol or acetone and adding distilled water. From this stalk solution, 0.01 μM and 0.001 μM concentrations were prepared. Calliterpenone and calliterpenone di acetate was dissolved in 2.0 ml absolute ethanol (Merc), while; calliterpenone monoacetate, isopropylideno calliterpenone and trihydroxy calliterpenone were dissolved in 2.0 ml spectral grade acetone (Ranbaxy). The respective control test solutions of distilled water of each concentration also contained equal amount of absolute ethanol or acetone. For an assay, 10 seeds were placed on Whatman filter paper (moistened with 5.0 ml of test solution in a 9.0 cm diameter petridish (in triplicate). The pteridishes were incubated for 9 days in a germinator, maintained at 25.0±1.0° C. with 90% humidity and 4 hr light/day. At the end of incubation, observations were recorded on the seedlings in terms of germination, shoot and root growth. The data on the length of shoot and root of seedlings and number of seeds germinated in different concentrations of compounds were compared with the control, which was taken as 100%. The data thus obtained were presented in Table-1.
(§4) Root growth of seedlings was measured in the similar way as shoot growth from the experiment as described in Example 1.
(§5) Effect of test compounds on germination was observed from the same experiment as described in Example 1.

[2] = test system: Trigonella foenum-graecum; details: for Percent (%) germination of seeds in relation to control on 9th day after sowing / Percent (%) root growth of seedlings in relation to control on 9th day after sowing / Percent (%) shoot growth of seedlings in relation to control on 9th day after sowing: Trigonella foenum graecum, control = 100%
Experimental: as §1, §2, §3, §4, §5

[3] = test system: Triticum aestivum; details: control = 100%
Experimental: as §1, §2, §3, §4, §5

[4] = test system: Vigna radiata; details: Vigna radiata, control = 100%
Experimental: as §1, §2, §3, §4, §5

SMILES	Percent (%) germination of seeds in relation to control on 9th day after sowing ([1]; 0.001 μM)	Percent (%) root growth of seedlings in relation to control on 9th day after sowing ([1]; 0.001 μM)	Percent (%) shoot growth of seedlings in relation to control on 9th day after sowing ([1]; 0.001 μM)	Percent (%) germination of seeds in relation to control on 9th day after sowing ([1]; 0.01 μM)	Percent (%) root growth of seedlings in relation to control on 9th day after sowing ([1]; 0.01 μM)	Percent (%) shoot growth of seedlings in relation to control on 9th day after sowing ([1]; 0.01 μM)	Percent (%) germination of seeds in relation to control on 9th day after sowing ([1]; 0.1 μM)	Percent (%) root growth of seedlings in relation to control on 9th day after sowing ([1]; 0.1 μM)	Percent (%) shoot growth of seedlings in relation to control on 9th day after sowing ([1]; 0.1 μM)	Percent (%) germination of seeds in relation to control on 9th day after sowing ([2]; 0.001 μM)	Percent (%) root growth of seedlings in relation to control on 9th day after sowing ([2]; 0.001 μM)	Percent (%) shoot growth of seedlings in relation to control on 9th day after sowing ([2]; 0.001 μM)	Percent (%) germination of seeds in relation to control on 9th day after sowing ([2]; 0.01 μM)	Percent (%) root growth of seedlings in relation to control on 9th day after sowing ([2]; 0.01 μM)	Percent (%) shoot growth of seedlings in relation to control on 9th day after sowing ([2]; 0.01 μM)	Percent (%) germination of seeds in relation to control on 9th day after sowing ([2]; 0.1 μM)	Percent (%) root growth of seedlings in relation to control on 9th day after sowing ([2]; 0.1 μM)	Percent (%) shoot growth of seedlings in relation to control on 9th day after sowing ([2]; 0.1 μM)	Percent (%) germination of seeds in relation to control on 9th day after sowing ([3]; 0.001 μM)	Percent (%) root growth of seedlings in relation to control on 9th day after sowing ([3]; 0.001 μM)	other results
CC(=O)OCC1(OC(C)=O)CC23CCC4C(C)(C)C(=O)CCC4(C)C2CCC1C3 (stereo not shown) [Calliterpenone Diacetate, calliterpenone diacetate]	100%	119%	108%	100%	113%	106%	100%	98%	105%	100%	73%	81%	100%	113%	121%	75%	95%	94%	100%	125%	Percent (%) root growth of seedlings in relation to control on 9th day after sowing ([1]; 0.01 μM, listed as Calliterpenone diacetate): 119%; Percent (%) root growth of seedlings in relation to control on 9th day after sowing ([2]; 0.001 μM, listed as Calliterpenone diacetate): 113%; Percent (%) shoot growth of seedlings in relation to control on 9th day after sowing ([3]; 0.001 μM): 109%; Percent (%) germination of seeds in relation to control on 9th day after sowing ([3]; 0.01 μM): 100%; Percent (%) root growth of seedlings in relation to control on 9th day after sowing ([3]; 0.01 μM): 114%; Percent (%) shoot growth of seedlings in relation to control on 9th day after sowing ([3]; 0.01 μM): 106%; Percent (%) germination of seeds in relation to control on 9th day after sowing ([3]; 0.1 μM): 90%; Percent (%) root growth of seedlings in relation to control on 9th day after sowing ([3]; 0.1 μM): 103%; Percent (%) shoot growth of seedlings in relation to control on 9th day after sowing ([3]; 0.1 μM): 103%; Percent (%) germination of seeds in relation to control on 9th day after sowing ([4]; 0.001 μM): 200%; Percent (%) root growth of seedlings in relation to control on 9th day after sowing ([4]; 0.001 μM): 91%; Percent (%) shoot growth of seedlings in relation to control on 9th day after sowing ([4]; 0.001 μM): 111%; Percent (%) germination of seeds in relation to control on 9th day after sowing ([4]; 0.01 μM): 100%; Percent (%) root growth of seedlings in relation to control on 9th day after sowing ([4]; 0.01 μM): 136%; Percent (%) shoot growth of seedlings in relation to control on 9th day after sowing ([4]; 0.01 μM): 115%; Percent (%) germination of seeds in relation to control on 9th day after sowing ([4]; 0.1 μM): 100%; Percent (%) root growth of seedlings in relation to control on 9th day after sowing ([4]; 0.1 μM): 93%; Percent (%) shoot growth of seedlings in relation to control on 9th day after sowing ([4]; 0.1 μM): 119%
CC1(C)OCC2(CC34CCC5C(C)(C)C(=O)CCC5(C)C3CCC2C4)O1 (stereo not drawn) [Isopropylideno Calliterpenone, 16α, 17-isopropylidino 3-oxo phyllocladane]	100%	118%	106%	100%	115%	107%	100%	143%	108%	100%	132%	137%	113%	123%	123%	100%	91%	100%	100%	109%	Percent (%) root growth of seedlings in relation to control on 9th day after sowing ([2]; 0.01 μM, listed as Iso-propylideno calliterpenone): 132%; Percent (%) shoot growth of seedlings in relation to control on 9th day after sowing ([3]; 0.001 μM): 103%; Percent (%) germination of seeds in relation to control on 9th day after sowing ([3]; 0.01 μM): 100%; Percent (%) root growth of seedlings in relation to control on 9th day after sowing ([3]; 0.01 μM): 107%; Percent (%) shoot growth of seedlings in relation to control on 9th day after sowing ([3]; 0.01 μM): 103%; Percent (%) germination of seeds in relation to control on 9th day after sowing ([3]; 0.1 μM): 100%; Percent (%) root growth of seedlings in relation to control on 9th day after sowing ([3]; 0.1 μM): 78%; Percent (%) shoot growth of seedlings in relation to control on 9th day after sowing ([3]; 0.1 μM): 102%; Percent (%) germination of seeds in relation to control on 9th day after sowing ([4]; 0.001 μM): 150%; Percent (%) root growth of seedlings in relation to control on 9th day after sowing ([4]; 0.001 μM): 91%; Percent (%) shoot growth of seedlings in relation to control on 9th day after sowing ([4]; 0.001 μM): 89%; Percent (%) germination of seeds in relation to control on 9th day after sowing ([4]; 0.01 μM): 100%; Percent (%) root growth of seedlings in relation to control on 9th day after sowing ([4]; 0.01 μM): 131%; Percent (%) shoot growth of seedlings in relation to control on 9th day after sowing ([4]; 0.01 μM): 153%; Percent (%) germination of seeds in relation to control on 9th day after sowing ([4]; 0.1 μM): 100%; Percent (%) root growth of seedlings in relation to control on 9th day after sowing ([4]; 0.1 μM): 124%; Percent (%) shoot growth of seedlings in relation to control on 9th day after sowing ([4]; 0.1 μM): 145%
CC1(C)C(O)CCC2(C)C3CCC4CC3(CCC12)CC4(O)CO (stereo not drawn) [Trihydroxy Phyllocladane, 30β, 16α, 17. trihydroxy phyllocladane]	100%	145%	102%	100%	112%	108%	100%	106%	109%	63%	55%	53%	75%	68%	72%	88%	82%	84%	100%	90%	Effect on shoots (in words) ([2]; T. foenum-graecum, all dilutions tested): proved toxic; Percent (%) shoot growth of seedlings in relation to control on 9th day after sowing ([3]; 0.001 μM): 108%; Percent (%) germination of seeds in relation to control on 9th day after sowing ([3]; 0.01 μM): 100%; Percent (%) root growth of seedlings in relation to control on 9th day after sowing ([3]; 0.01 μM): 113%; Percent (%) shoot growth of seedlings in relation to control on 9th day after sowing ([3]; 0.01 μM): 112%; Percent (%) germination of seeds in relation to control on 9th day after sowing ([3]; 0.1 μM): 100%; Percent (%) root growth of seedlings in relation to control on 9th day after sowing ([3]; 0.1 μM): 111%; Percent (%) shoot growth of seedlings in relation to control on 9th day after sowing ([3]; 0.1 μM): 116%; Percent (%) germination of seeds in relation to control on 9th day after sowing ([4]; 0.001 μM): 100%; Percent (%) root growth of seedlings in relation to control on 9th day after sowing ([4]; 0.001 μM): 100%; Percent (%) shoot growth of seedlings in relation to control on 9th day after sowing ([4]; 0.001 μM): 136%; Percent (%) germination of seeds in relation to control on 9th day after sowing ([4]; 0.01 μM): 150%; Percent (%) root growth of seedlings in relation to control on 9th day after sowing ([4]; 0.01 μM): 102%; Percent (%) shoot growth of seedlings in relation to control on 9th day after sowing ([4]; 0.01 μM): 145%; Percent (%) germination of seeds in relation to control on 9th day after sowing ([4]; 0.1 μM): 150%; Percent (%) root growth of seedlings in relation to control on 9th day after sowing ([4]; 0.1 μM): 93%; Percent (%) shoot growth of seedlings in relation to control on 9th day after sowing ([4]; 0.1 μM): 132%
